We go through eleven compounds from PubChem BioAssay (NCI).

Values joined by “and” are separate entries in the source; they are usually repeats but may differ in a detail not shown here. Identical values can stand only once.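 Step 1: Grow cells in 96-well plates. Step 2: Expose to compound for 48 hours at 5 concentrations. Step 3: Interpolate endpoints linearly; if unreached, use highest concentration. GI50 = concentration required for 50% inhibition of growth. The concentration for full growth arrest is given as TGI.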 Where only a bound is given, the exact number is not on record here.

Test systems include U251 CNS; HL-60(TB) leukemia; TK-10 renal; SF-539 CNS; NCI-H226 lung; UACC-257 melanoma; NCI-H460 lung; HOP-92 NSCLC; SR leukemia; OVCAR-8 ovarian.
What all share (assay): NCI tumour cell line growth inhibition, 48 h

As for `CC(=O)OCC1OC(n2cnc3c(I)nc(I)nc32)C(OC(C)=O)C1OC(C)=O` (configuration not stated), the TGI in the experiment on U251 CNS turned out to be 22.9 µM; with HL-60(TB) leukemia, 5.52 µM; with TK-10 renal, 33.6 µM; in the experiment on SF-539 CNS, 29.6 µM; with NCI-H226 lung, 35.5 µM; with UACC-257 melanoma it was 27.5 µM. Further, the TGI with NCI-H460 lung is 35.9 µM; with HOP-92 NSCLC, 9.16 µM; with SR leukemia it was 11.8 µM; in the experiment on OVCAR-8 ovarian, 24.1 µM.
In the case of `S=c1nc(/C=C/c2ccc(Cl)c(Cl)c2)[nH][nH]1`, the TGI with U251 CNS, with HL-60(TB) leukemia, with TK-10 renal, with SF-539 CNS, in the experiment with NCI-H226 lung and in the experiment on UACC-257 melanoma was more than 100 µM throughout. Also, the TGI with NCI-H460 lung was more than 100 µM; in the experiment with HOP-92 NSCLC, 64.6 µM; in the experiment on SR leukemia it was more than 100 µM; with OVCAR-8 ovarian, more than 100 µM. In addition, the GI50 in the experiment on HOP-92 NSCLC is 0.802 µM; in the experiment on SR leukemia, 22.7 µM.
As to `CC(=O)NNc1nc(C)c(C(/C=C/c2ccc3c(c2)OCO3)=N/NC(=O)c2ccncc2)s1`, the TGI with U251 CNS, in the experiment with HL-60(TB) leukemia, in the experiment with TK-10 renal, in the experiment with SF-539 CNS, with NCI-H226 lung and with UACC-257 melanoma was more than 100 µM in each case. The TGI with NCI-H460 lung, with HOP-92 NSCLC, with SR leukemia and in the experiment on OVCAR-8 ovarian was more than 100 µM in each case.
Turning to `COc1ccc(Nc2nc3c(N)cc(C(F)(F)F)cc3nc2-c2ccccc2)cc1`, the TGI in the experiment with U251 CNS, in the experiment on HL-60(TB) leukemia, in the experiment on TK-10 renal, in the experiment with SF-539 CNS, with NCI-H226 lung and in the experiment on UACC-257 melanoma was more than 100 µM each time. Moreover, the TGI in the experiment with NCI-H460 lung, with HOP-92 NSCLC, in the experiment on SR leukemia and in the experiment on OVCAR-8 ovarian was more than 100 µM throughout.
In the case of `Cn1cc(-c2ccc3c(c2)ncn3-c2ccc(CC(=O)Nc3cc(C(C)(C)C)on3)cc2)cn1`, the GI50 is 2.93 µM in the experiment with U251 CNS; 3.33 µM with HL-60(TB) leukemia; 0.671 µM in the experiment on TK-10 renal; 0.175 µM in the experiment with SF-539 CNS; 0.173 µM in the experiment on NCI-H226 lung; 3.18 µM in the experiment with UACC-257 melanoma. Besides, the GI50 with NCI-H460 lung is 2.45 µM; in the experiment on HOP-92 NSCLC, 0.227 µM; in the experiment with SR leukemia, 1.69 µM; in the experiment on OVCAR-8 ovarian it was 3.16 µM. For the same compound, the TGI in the experiment with U251 CNS is more than 42.7 µM; with HL-60(TB) leukemia, 9.65 µM; with TK-10 renal, 3.17 µM; with SF-539 CNS it was 1.74 µM; in the experiment with NCI-H226 lung it was 3.27 µM; in the experiment with UACC-257 melanoma it was 53.7 µM. Besides, the TGI in the experiment on NCI-H460 lung was more than 37.7 µM; with HOP-92 NSCLC, 1.42 µM; in the experiment on SR leukemia, 8.49 µM; in the experiment on OVCAR-8 ovarian it was more than 43.3 µM.
For the compound `COC(=O)C12C3C=CC(O3)C1C1C=CC2O1` (configuration not stated), the TGI with U251 CNS, with HL-60(TB) leukemia, in the experiment on TK-10 renal, in the experiment with SF-539 CNS, in the experiment on NCI-H226 lung and in the experiment with UACC-257 melanoma was more than 100 µM each time. For the same compound, the TGI in the experiment with NCI-H460 lung, in the experiment with HOP-92 NSCLC, in the experiment with SR leukemia and in the experiment on OVCAR-8 ovarian was more than 100 µM each time.
On to `COC1C2c3ccccc3C(C#N)(Cc3ccc4c(c32)OCO4)N1C(=O)c1ccccc1` (configuration not stated), for which the TGI with U251 CNS was more than 100 µM; with HL-60(TB) leukemia, more than 100 µM; in the experiment with TK-10 renal it was more than 100 µM; in the experiment with SF-539 CNS, more than 100 µM; in the experiment with NCI-H226 lung, 85.9 µM; in the experiment with UACC-257 melanoma, more than 100 µM. The TGI in the experiment with NCI-H460 lung, in the experiment with HOP-92 NSCLC, in the experiment on SR leukemia and in the experiment on OVCAR-8 ovarian was more than 100 µM each time.
As to `COc1ccc2c(c1)C(=O)/C(=C/c1ccc(OCC(=O)c3ccc(Cl)cc3)cc1)O2`, the GI50 is 15.5 µM with U251 CNS; 2.89 µM with HL-60(TB) leukemia; 26.5 µM in the experiment on TK-10 renal; 17.9 µM in the experiment with SF-539 CNS; 12.2 µM in the experiment on NCI-H226 lung; more than 100 µM in the experiment on UACC-257 melanoma. Besides, the GI50 with NCI-H460 lung was 29.7 µM; in the experiment with HOP-92 NSCLC, 15.7 µM; with SR leukemia it was 2.15 µM; in the experiment on OVCAR-8 ovarian it was 42.4 µM. The TGI is 35.3 µM in the experiment with U251 CNS; 16.9 µM in the experiment on HL-60(TB) leukemia; 43.4 µM in the experiment with TK-10 renal; 34.8 µM with SF-539 CNS; 37.1 µM in the experiment with NCI-H226 lung; more than 100 µM in the experiment on UACC-257 melanoma. For the same compound, the TGI was more than 100 µM in the experiment on NCI-H460 lung, 37.1 µM in the experiment on HOP-92 NSCLC, 6.34 µM with SR leukemia and more than 100 µM with OVCAR-8 ovarian.
For `Cc1cc(N(CCC#N)CCC#N)ccc1N=Nc1ccc([N+](=O)[O-])cc1`, the TGI is 36.1 µM in the experiment with U251 CNS; more than 100 µM with HL-60(TB) leukemia; 83.2 µM in the experiment with TK-10 renal; more than 100 µM with SF-539 CNS; more than 100 µM with NCI-H226 lung; more than 100 µM with UACC-257 melanoma. The TGI with NCI-H460 lung was more than 100 µM; with HOP-92 NSCLC, more than 100 µM; in the experiment on SR leukemia, more than 100 µM; in the experiment on OVCAR-8 ovarian, 56.9 µM.
On to `CCN(CC)c1ccc(/C=C/C2=[N+](C)c3ccccc3C2(C)C)cc1`, for which the GI50 was 0.201 µM with U251 CNS; 0.0906 µM with HL-60(TB) leukemia; 0.373 µM in the experiment on TK-10 renal; 0.776 µM in the experiment on SF-539 CNS; 0.992 µM in the experiment on NCI-H226 lung; 0.375 µM in the experiment with UACC-257 melanoma. Moreover, the GI50 in the experiment on NCI-H460 lung was 0.312 µM; in the experiment with HOP-92 NSCLC, 0.766 µM; in the experiment on SR leukemia, more than 20.9 µM; in the experiment with OVCAR-8 ovarian it was 0.442 µM. The TGI with U251 CNS is 21.6 µM; with HL-60(TB) leukemia, more than 100 µM; with TK-10 renal it was 10.6 µM; in the experiment with SF-539 CNS, 13.9 µM; in the experiment with NCI-H226 lung, 18.7 µM; in the experiment on UACC-257 melanoma, 14.6 µM. For the same compound, the TGI was 15.8 µM in the experiment on NCI-H460 lung, more than 35.2 µM in the experiment on HOP-92 NSCLC, more than 100 µM in the experiment on SR leukemia and more than 100 µM in the experiment on OVCAR-8 ovarian.
In the case of `CN(C)CC1CCCC(CN(C)C)C1=O` (configuration not stated), the TGI is 23 µM and 34.6 µM with U251 CNS; 2.03 µM and 7.45 µM in the experiment on HL-60(TB) leukemia; 7.88 µM and 2.63 µM in the experiment on TK-10 renal; 21.9 µM and 5.78 µM with SF-539 CNS; 35.6 µM and > 69.2 µM in the experiment on NCI-H226 lung; 4.49 µM and 5.8 µM in the experiment with UACC-257 melanoma. For the same compound, the TGI was 38.5 µM and 33.8 µM in the experiment with NCI-H460 lung; 2.26 µM in the experiment on HOP-92 NSCLC; 1.64 µM in the experiment with SR leukemia; 5.86 µM and 10.6 µM in the experiment on OVCAR-8 ovarian. Moreover, the GI50 is 0.612 µM and 2.85 µM with HL-60(TB) leukemia; 2.81 µM and 0.861 µM in the experiment with TK-10 renal; 11.3 µM and 1.75 µM with SF-539 CNS; 18.6 µM and > 46.5 µM in the experiment with NCI-H226 lung; 0.254 µM and 0.803 µM with SR leukemia.
